# From patent US5516525A, “Vitamin D derivative feed compositions and methods of use” (University of Georgia Research Foundation, Inc., priority 1994, dated 1996)
# Read-outs that look alike come from different tables or passages of the source.
# How the values were obtained:
# tibial dyschondroplasia [1] = format: in vivo, chicken (Peterson X Arbor Acre cockerels); conditions: for #3/No. / % N2 + 3 / % N3: Study 3; for #3/No. / % N2 + 3 / % N3 / #3/total / % #3: D3 […], derivatives 10 μg/kg feed; for incidence and severity of tibial dyschondroplasia: in words, Example 2
# Protocol: Deep irregularities are apparent.
# (§1) The basal diet used is described above in Table 2. Disulfiram was added to the basal diet of some chickens as indicated in Table 10 at a level of 30 mg/kg of feed.
# (§2) After the tibia was scored for incidence and severity of tibial dyschondroplasia, the left tibia was removed for a bone ash determination on the fat-free dried bone.
# ^47 Ca retention = assay: 47Ca absorption and retention (Example 2); format: in vivo, chicken (Peterson X Arbor Acre cockerels); design: key to ^47 Ca intercept / Ca^47 Ret.: % of administered 47Ca retained (y-intercept of retention-vs-days plot); conditions: for Ca^47 Ret. / Ca^47 slope: Study 3; for Ca^47 Ret. / Ca^47 slope / ^47 Ca intercept / ^47 Ca slope: D3 […], derivatives 10 μg/kg feed; for ^47 Ca intercept / ^47 Ca slope: Study 2
# Protocol: Absorption and retention of dietary calcium was measured by orally dosing chicks with ^47 Ca and then measuring the total body radioactive count, as described in Suso and Edwards, "A Study of Techniques for Measuring ^65 Zn Absorption and Biological Half-life in the Chicken," Poult. Sci. 47:991-999 (1968). Specifically, ten seven day old birds in one pen under the indicated dietary treatments were dosed orally with 0.5 milliliter of water solution containing 0.5 microcuries of ^47 Ca and 0.1 to 1.0 micrograms of calcium. The total body radioactive content of the individual chickens was determined immediately following dosing, and also on days 7, 9, 12 and 14 following dosing. A plot of percent administered ^47 Ca which was retained versus number of days yields a line which has a slope corresponding to the half-life of the radioactive calcium in the chicken, and a y-intercept that corresponds to the amount of calcium absorbed by the chicken. Effect of vitamin D3 derivatives on Tibial Dyschondroplasia.
# [2] = 16-day body weight and gain:feed (Example 2); format: in vivo, chicken (Peterson X Arbor Acre cockerels); conditions: D3 […], derivatives 10 μg/kg feed
# Protocol: The basal diet used is described above in Table 2. Disulfiram was added to the basal diet of some chickens as indicated in Table 10 at a level of 30 mg/kg of feed. […]
# tibial dyschondroplasia [3] = conditions: cited from earlier work; for incidence of tibial dyschondroplasia: 20 ng/day, Edwards, J. Nutr. 114:1001 (1984); for tibial dyschondroplasia (effect of dietary factor): chickens, dietary level
# bone ash [4] = assay: bone ash of left tibia (Example 1); conditions: in words
# Text: The left tibia was removed for bone ash determination on the fat-free bone.
# bone ash [5] = assay: bone ash (Example 2); format: in vivo, chicken (Peterson X Arbor Acre cockerels); conditions: in words
# Protocol: as §1, §2
# [6] = 9-day body weight, feed consumption and gain:feed (Example 1); conditions: in words, Example 1
# Protocol: Newly hatched Petersen X Arbor Acre cockerels obtained from a commercial hatchery were used. Animals were housed in electrically heated Petersime battery brooders with wire-mesh floors located in a room in which the temperature was maintained at 22° C., fluorescent lights were on 24 hours each day in the room and the cages, and sunlight was present during the day from large windows. No attempt was made to limit the natural production of vitamin D3. Feed and water were available to the chickens at all times.
# Ten newly hatched birds were randomly placed in each section of the Petersime batteries until the birds were nine days old. The measurements described below were calculated on a pen basis; all statistical analyses were conducted on pen averages. Blood samples were taken by cardiac puncture with heparinized syringes from one randomly chosen bird from each pen on the ninth day before weighing the birds.
# At nine days of age, pen body weights were obtained for all birds and their feed consumption was recorded. […] Briefly, using a three week old chicken as the reference animal, a score of zero indicates normal cartilage which is narrow with little irregularities. […] Deep irregularities are apparent. A score of three indicates a large mass of cartilage in the proximal end of the tibia. The birds were also scored for phosphorus deficient rickets at the same time they were scored for tibial dyschondroplasia. Chickens which had normal proliferating prehypertrophied zone and a lengthened metaphyseal primary spongiosa were classified as phosphorus deficient rickets. The left tibia was removed for bone ash determination on the fat-free bone.
# calcium = conditions: in vivo; cited from earlier work
# [7] = Study 1, with disulfiram 30 mg/kg feed
# [8] = Study 2, with disulfiram 30 mg/kg feed
# 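Throughout, for #3/No.: score 3 means a large cartilage mass in the proximal tibia.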
# 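Throughout, for #3/total: score 3 means a large cartilage mass in the proximal tibia.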
# 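Throughout, for % #3: score 3 means a large cartilage mass in the proximal tibia.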
# 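Throughout, for % N3: score 3 means a large cartilage mass in the proximal tibia.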
compound,measurement,setting,value
"C=C1/C(=C\C=C2/CCC[C@]3(C)[C@@H]([C@H](C)CCC(O)C(C)(C)O)CC[C@@H]23)C[C@@H](O)C[C@@H]1O (stereo partly shown) [1,24,25-(OH)2 D3, 1,24,25-trihydroxycholecalciferol]",#3/No.,tibial dyschondroplasia [1],6/60
same,% N2 + 3,tibial dyschondroplasia [1],22%
same,% N3,tibial dyschondroplasia [1],10%
same,#3/total,tibial dyschondroplasia [1]; Study 4,8/57
same,% #3,tibial dyschondroplasia [1]; Study 4,14%
same,incidence and severity of tibial dyschondroplasia,tibial dyschondroplasia [1],significant reduction in the incidence of tibial dyschondroplasia
same,Ca^47 Ret.,^47 Ca retention,76
same,Ca^47 slope,^47 Ca retention,-.77
same,16 Day Wt.,[2]; Study 3,428
same,Gain/feed,[2]; Study 3,.688
same,16 Day wt.,[2]; Study 4,376
same,Gain/feed,[2]; Study 4,.681
"C=C1/C(=C\C=C2/CCC[C@]3(C)[C@@H]([C@H](C)CCCC(C)(C)O)CC[C@@H]23)C[C@@H](O)C[C@@H]1O [1,25-(OH)2 D3, 1,25-dihydroxycholecalciferol]",incidence of tibial dyschondroplasia,tibial dyschondroplasia [3],no effect on the incidence of tibial dyschondroplasia
same,bone ash,bone ash [4],increased
same,bone ash,bone ash [5],increases bone ash
same,nine day weight,[6],increased
same,#3/total,"tibial dyschondroplasia [1]; Study 1, basal diet",1/29
same,#3/total,tibial dyschondroplasia [1]; [7],4/30
same,#3/total,"tibial dyschondroplasia [1]; Study 2, basal diet",2/30
same,#3/total,tibial dyschondroplasia [1]; [8],6/30
same,#3/No.,tibial dyschondroplasia [1],5/58
same,% N2 + 3,tibial dyschondroplasia [1],16%
same,% N3,tibial dyschondroplasia [1],9%
same,#3/total,tibial dyschondroplasia [1]; Study 4,4/52
same,% #3,tibial dyschondroplasia [1]; Study 4,8%
same,^47 Ca intercept,^47 Ca retention; basal diet,84
same,^47 Ca slope,^47 Ca retention; basal diet,-2.85
same,^47 Ca intercept,^47 Ca retention; with disulfiram 30 mg/kg feed,70
same,^47 Ca slope,^47 Ca retention; with disulfiram 30 mg/kg feed,-2.11
same,Ca^47 Ret.,^47 Ca retention,78
same,Ca^47 slope,^47 Ca retention,-.72
same,dietary ^47 Ca absorbed,"^47 Ca retention; in words, Example 2",significantly more dietary ^47 Ca absorbed
same,"half-life, or retention, of the calcium","^47 Ca retention; in words, Example 2",increasing the half-life
same,16 Day wt.,"[2]; Study 1, basal diet",421
same,Gain:Feed,"[2]; Study 1, basal diet",.670
same,16 Day wt.,[2]; [7],426
same,Gain:Feed,[2]; [7],.701
same,16 day wt,"[2]; Study 2, basal diet",361
same,Gain:Feed,"[2]; Study 2, basal diet",.661
same,16 day wt,[2]; [8],377
same,Gain:Feed,[2]; [8],.684
same,16 Day Wt.,[2]; Study 3,421
same,Gain/feed,[2]; Study 3,.66
same,16 Day wt.,[2]; Study 4,355
same,Gain/feed,[2]; Study 4,.652
"C=C1/C(=C\C=C2/CCC[C@]3(C)[C@@H]([C@H](C)CC[C@@H](F)C(C)(C)O)CC[C@@H]23)C[C@@H](O)C[C@@H]1O [1,25-(OH)2-24R-FD3, 1,25-dihydroxy-24-fluorocholecalciferol]",#3/No.,tibial dyschondroplasia [1],3/60
same,% N2 + 3,tibial dyschondroplasia [1],15%
same,% N3,tibial dyschondroplasia [1],5%
same,#3/total,tibial dyschondroplasia [1]; Study 4,9/56
same,% #3,tibial dyschondroplasia [1]; Study 4,16%
same,incidence and severity of tibial dyschondroplasia,tibial dyschondroplasia [1],significant reduction in the incidence of tibial dyschondroplasia
same,Ca^47 Ret.,^47 Ca retention,72
same,Ca^47 slope,^47 Ca retention,-.47
same,16 Day Wt.,[2]; Study 3,413
same,Gain/feed,[2]; Study 3,.663
same,16 Day wt.,[2]; Study 4,360
same,Gain/feed,[2]; Study 4,.661
"[2H]C([2H])([2H])C(O)(CCC[C@@H](C)[C@H]1CC[C@H]2/C(=C/C=C3/C[C@@H](O)C[C@H](O)C3=C)CCC[C@]12C)C([2H])([2H])[2H] [1,25-(OH)2-26,27[^1 H]6 D3, 1,25-dihydroxy-26,27-hexadeuterocholecalciferol]",#3/No.,tibial dyschondroplasia [1],0/60
same,% N2 + 3,tibial dyschondroplasia [1],8%
same,% N3,tibial dyschondroplasia [1],0%
same,#3/total,tibial dyschondroplasia [1]; Study 4,4/58
same,% #3,tibial dyschondroplasia [1]; Study 4,7%
same,incidence and severity of tibial dyschondroplasia,tibial dyschondroplasia [1],significant reduction in the incidence of tibial dyschondroplasia
same,Ca^47 Ret.,^47 Ca retention,80
same,Ca^47 slope,^47 Ca retention,.15
same,16 Day Wt.,[2]; Study 3,422
same,Gain/feed,[2]; Study 3,.687
same,16 Day wt.,[2]; Study 4,360
same,Gain/feed,[2]; Study 4,.646
"C=C1/C(=C\C=C2/CCC[C@]3(C)[C@@H]([C@H](C)CCCC(C)C)CC[C@@H]23)C[C@@H](O)C[C@@H]1O [1-OHD3, 1-hydroxycholecalciferol]",bone ash,bone ash [4],increased
same,nine day weight,[6],increased
same,#3/No.,tibial dyschondroplasia [1],3/60
same,% N2 + 3,tibial dyschondroplasia [1],17%
same,% N3,tibial dyschondroplasia [1],5%
same,#3/total,tibial dyschondroplasia [1]; Study 4,8/57
same,% #3,tibial dyschondroplasia [1]; Study 4,15%
same,incidence and severity of tibial dyschondroplasia,tibial dyschondroplasia [1],significant reduction in the incidence of tibial dyschondroplasia
same,Ca^47 Ret.,^47 Ca retention,75
same,Ca^47 slope,^47 Ca retention,-.95
same,16 Day Wt.,[2]; Study 3,423
same,Gain/feed,[2]; Study 3,.661
same,16 Day wt.,[2]; Study 4,372
same,Gain/feed,[2]; Study 4,.655
"C=C1CC[C@H](O)C/C1=C/C=C1\CCC[C@]2(C)[C@@H]([C@H](C)CCC(O)C(C)(C)O)CC[C@@H]12 (stereo partly shown) [24,25-(OH)2 D3, 24,25-dihydroxycholecalciferol, reference compound]",incidence of tibial dyschondroplasia,tibial dyschondroplasia [3],no effect on the incidence of tibial dyschondroplasia
same,bone ash,bone ash [4],no effect
same,nine day weight,[6],no effect
same,#3/No.,tibial dyschondroplasia [1],17/59
same,% N2 + 3,tibial dyschondroplasia [1],53%
same,% N3,tibial dyschondroplasia [1],29%
same,#3/total,tibial dyschondroplasia [1]; Study 4,25/56
same,% #3,tibial dyschondroplasia [1]; Study 4,46%
same,incidence and severity of tibial dyschondroplasia,tibial dyschondroplasia [1],not effective in preventing the development of tibial dyschondroplasia
same,Ca^47 Ret.,^47 Ca retention,67
same,Ca^47 slope,^47 Ca retention,-.77
same,16 Day Wt.,[2]; Study 3,424
same,Gain/feed,[2]; Study 3,.696
same,16 Day wt.,[2]; Study 4,351
same,Gain/feed,[2]; Study 4,.663
"C=C1CC[C@H](O)C/C1=C/C=C1\CCC[C@]2(C)[C@@H]([C@H](C)CCCC(C)(C)O)CC[C@@H]12 [25-OHD3, 25-hydroxycholecalciferol]",#3/total,"tibial dyschondroplasia [1]; Study 1, basal diet",1/28
same,#3/total,"tibial dyschondroplasia [1]; Study 2, basal diet",7/30
same,#3/total,tibial dyschondroplasia [1]; [8],11/28
same,incidence and severity of tibial dyschondroplasia,tibial dyschondroplasia [1],reduced the incidence of tibial dyschondroplasia
same,^47 Ca intercept,^47 Ca retention; basal diet,72
same,^47 Ca intercept,^47 Ca retention; with disulfiram 30 mg/kg feed,74
same,^47 Ca slope,^47 Ca retention; with disulfiram 30 mg/kg feed,-1.67
same,16 Day wt.,"[2]; Study 1, basal diet",395
same,Gain:Feed,"[2]; Study 1, basal diet",.667
same,16 Day wt.,[2]; [7],398
same,Gain:Feed,[2]; [7],.706
same,16 day wt,"[2]; Study 2, basal diet",392
same,Gain:Feed,"[2]; Study 2, basal diet",.713
same,16 day wt,[2]; [8],395
same,Gain:Feed,[2]; [8],.728
"C=C1CC[C@H](O)C/C1=C/C=C1\CCC[C@]2(C)[C@@H]([C@H](C)CCCC(C)C)CC[C@@H]12 [D3, cholecalciferol, reference compound]",#3/total,"tibial dyschondroplasia [1]; Study 1, basal diet",4/27
same,#3/total,tibial dyschondroplasia [1]; [7],9/27
same,#3/total,"tibial dyschondroplasia [1]; Study 2, basal diet",5/29
same,#3/total,tibial dyschondroplasia [1]; [8],12/30
same,#3/No.,tibial dyschondroplasia [1],13/59
same,% N2 + 3,tibial dyschondroplasia [1],34%
same,% N3,tibial dyschondroplasia [1],22%
same,#3/total,tibial dyschondroplasia [1]; Study 4,20/58
same,% #3,tibial dyschondroplasia [1]; Study 4,35%
same,^47 Ca intercept,^47 Ca retention; basal diet,77
same,^47 Ca slope,^47 Ca retention; basal diet,-1.88
same,^47 Ca intercept,^47 Ca retention; with disulfiram 30 mg/kg feed,72
same,^47 Ca slope,^47 Ca retention; with disulfiram 30 mg/kg feed,-1.97
same,Ca^47 Ret.,^47 Ca retention,75
same,Ca^47 slope,^47 Ca retention,-1.13
same,16 Day wt.,"[2]; Study 1, basal diet",451
same,Gain:Feed,"[2]; Study 1, basal diet",.734
same,16 Day wt.,[2]; [7],432
same,Gain:Feed,[2]; [7],.708
same,16 day wt,"[2]; Study 2, basal diet",368
same,Gain:Feed,"[2]; Study 2, basal diet",.647
same,16 day wt,[2]; [8],374
same,Gain:Feed,[2]; [8],.666
same,16 Day Wt.,[2]; Study 3,434
same,Gain/feed,[2]; Study 3,.709
same,16 Day wt.,[2]; Study 4,383
same,Gain/feed,[2]; Study 4,.701
"CCN(CC)C(=S)SSC(=S)N(CC)CC [Disulfiram, bis(diethylthiocarbamyl)disulfide, reference compound]",calcium absorption / loss,calcium,lowers the absorption of calcium
same,#3/total,tibial dyschondroplasia [1]; [7],16/30
same,#3/total,tibial dyschondroplasia [1]; [8],14/28
same,^47 Ca intercept,^47 Ca retention; with disulfiram 30 mg/kg feed,73
same,^47 Ca slope,^47 Ca retention; with disulfiram 30 mg/kg feed,-1.59
same,16 Day wt.,[2]; [7],433
same,Gain:Feed,[2]; [7],.750
same,16 day wt,[2]; [8],394
same,Gain:Feed,[2]; [8],.671
"CN(C)C(=S)SSC(=S)N(C)C [thiruram, bis(dimethylthiocarbamyl)disulfide, reference compound]",tibial dyschondroplasia (effect of dietary factor),tibial dyschondroplasia [3],causes tibial dyschondroplasia
same,calcium absorption / loss,calcium,rapid loss of intramuscularly-injected calcium
calcium,tibial dyschondroplasia (effect of dietary factor),tibial dyschondroplasia [3],retards development of the lesion
chloride,tibial dyschondroplasia (effect of dietary factor),tibial dyschondroplasia [3],increased the incidence of the abnormality
magnesium,tibial dyschondroplasia (effect of dietary factor),tibial dyschondroplasia [3],decrease the incidence of tibial dyschondroplasia
